“Also recorded” adds a separate entry of the source. Like-named read-outs stand apart in the source and are kept apart here.

This is an account of results in patent publication US5620676A, “Biologically active ATP analogs” (priority 1995, dated 1997).

For assay [1], the system named is P2Y receptor (aorta endothelium). The assay is described as follows: Relaxation of noradrenalin-contracted rabbit aorta. Particulars: for activity/potency/selectivity in words, aorta: rabbit aorta endothelial P2Y receptor; for relaxation pD2, aorta: rabbit aorta, log molar units.
A further assay deals with P2X receptors. The experiment in a line: Overall activity in P2X receptor systems.
The target in assay [2] is T1, P2Y receptor (turkey erythrocyte membranes) (Meleagris gallopavo, UniProt P49652).
T1 construct: from tissue; host or cells: washed turkey erythrocytes, ghosts prepared by hypotonic lysis
The assay is described as follows: Stimulation of phospholipase C (inositol phosphate formation) in turkey erythrocyte membranes. It counts as biochemical. To be noted: for EC50 / activity/potency in words, turkey erythrocyte: turkey erythrocyte membranes; for EC50: mean ± S.E.M. for at least 2 determinations, read-out: phosphatidyl inositol metabolism (K0.5, nM) erythrocyte. In short, it runs like this:
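Erythrocytes were labelled 18-24 h at 37 °C with [3H]myoinositol, and ghosts were made by hypotonic lysis. Ghosts (≈175 μg protein) were incubated 5 min at 30 °C in Hepes buffer pH 7.0 with 1 μM GTPγS and nucleotide analogs. Total [3H]inositol phosphates were purified by anion exchange; K0.5 averaged from 3-8 dose-response curves.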

For another assay, the system named is P2X and P2Y receptors. The assay is described as follows: Overall activity in the seven P2X and P2Y preparations.
In assay [3] the target is T2, P2Y receptor (taenia coli) (Cavia porcellus, UniProt P59902).
T2 construct: Relaxant responses mediated via P2Y receptors were examined in guinea pig taenia coli; from tissue; host or cells: guinea pig taenia coli (carbachol-contracted)
The experiment in a line: Relaxation of carbachol-contracted guinea pig taenia coli. In short, it runs like this: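 Guinea pig taenia coli precontracted with 50 nM carbachol; relaxation to applied P2Y agonists expressed as percentage relaxation against negative log molar agonist concentration.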

Assay [4] deals with T3, P2X receptor (urinary bladder) (Cavia porcellus, UniProt A0A286XVA9).
T3 construct: guinea pig isolated urinary bladder detrussor muscle; from tissue; host or cells: guinea pig isolated urinary bladder detrusor muscle
The assay is described as follows: Contraction of guinea pig isolated urinary bladder detrussor muscle. Particulars: guinea pig urinary bladder.

The target in assay [5] is T4, P2X receptor (vas deferens) (Cavia porcellus, UniProt A0A286XVA9).
T4 sequence (A0A286XVA9 1-399): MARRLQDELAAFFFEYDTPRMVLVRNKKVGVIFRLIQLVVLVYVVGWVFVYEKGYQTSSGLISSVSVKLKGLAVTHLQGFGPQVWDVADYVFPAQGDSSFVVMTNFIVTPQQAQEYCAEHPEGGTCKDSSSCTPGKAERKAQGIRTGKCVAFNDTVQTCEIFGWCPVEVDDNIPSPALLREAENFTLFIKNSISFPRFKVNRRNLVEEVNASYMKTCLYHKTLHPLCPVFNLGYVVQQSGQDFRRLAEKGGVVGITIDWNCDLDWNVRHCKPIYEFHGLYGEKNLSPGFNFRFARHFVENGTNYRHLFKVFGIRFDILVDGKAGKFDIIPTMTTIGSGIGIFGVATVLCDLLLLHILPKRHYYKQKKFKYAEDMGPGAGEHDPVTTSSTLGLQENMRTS
The assay is described as follows: Contraction of guinea pig isolated vas deferens.

For assay [6], the target named is T5, P2X receptor (saphenous artery) (Oryctolagus cuniculus, UniProt G1U3D6).
T5 construct: and rabbit saphenous artery; from tissue; host or cells: rabbit saphenous artery
T5 sequence (G1U3D6 1-399): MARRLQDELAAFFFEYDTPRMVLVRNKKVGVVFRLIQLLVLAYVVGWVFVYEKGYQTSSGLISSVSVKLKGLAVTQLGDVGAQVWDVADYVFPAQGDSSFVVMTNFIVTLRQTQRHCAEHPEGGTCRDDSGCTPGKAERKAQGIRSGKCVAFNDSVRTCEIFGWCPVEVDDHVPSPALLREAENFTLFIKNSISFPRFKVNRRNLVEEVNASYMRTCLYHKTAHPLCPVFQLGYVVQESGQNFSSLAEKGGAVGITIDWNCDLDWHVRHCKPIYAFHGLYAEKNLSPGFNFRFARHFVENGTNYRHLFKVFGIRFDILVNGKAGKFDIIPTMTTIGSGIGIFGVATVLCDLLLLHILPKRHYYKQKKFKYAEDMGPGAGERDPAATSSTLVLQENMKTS
The assay is described as follows: Contraction of rabbit saphenous artery. Particulars: rabbit saphenous artery. An outline of the steps:
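Contraction of isolated rabbit saphenous artery, standard organ-bath methods; responses at 10 μM expressed as percentage of contraction produced by 1 μM α,MeATP. Highest analogue concentrations tested were 3-30 […].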

The test system of another assay is P2Y receptors. The experiment in a line: Overall activity in P2Y receptor systems. As to the method:
Phospholipase C activity: Stimulation of inositol phosphate formation by compounds of the present invention was measured in turkey erythrocyte membranes as described by Harden et al., supra and Boyer et al., supra. The K0.5 values were averaged from 3-8 independently determined dose-response curves for each compound. Briefly, one ml of washed turkey erythrocytes was incubated in inositol-free medium (DMEM; Gibco) with 0.5-1 mCi of 2-[^3 H]myoinositol (20 Ci/mmol; American Radiolabeled Chemicals Inc., St. Louis, Mo.)for 18-24 h in a humidified atmosphere of 95% air 5% CO2 at 37° C. Erythrocyte ghosts were prepared by rapid lysis in hypotonic buffer (5 mM sodium phosphate, pH 7.4, 5 mM MgCl2, 1 mM EGTA) as described by Boyer et al., supra. Phospholipase C activity was measured in 25 μl of [^3 H]inositol-labeled ghosts (≈175 μg of protein, 200-500,000 cpm/assay) in a medium containing 424 μM CaC12, 0.91 mM MgSO4, 2 mM EGTA, 115 mM KCl, 5 mM KH2 PO4, and 10 mM Hepes, pH 7.0. Assay (100 μl or 200 μl final volume) contained 1 μM GTPγS and the indicated concentrations of nucleotide analogs. Ghosts were incubated at 30° C. for 5 min, and total [^3 H]inositol phosphates were quantitated after purification by anion exchange chromatography according to Harden et al. (supra) and Boyer et al. (supra).
Muscular relaxation/contraction: Relaxant responses mediated via P2Y receptors were examined in guinea pig taenia coli, rabbit aorta, and rabbit mesenteric artery, as described by Hoyle et al. (Br. J. Pharmacol., 107, 367-374 (1992a)), Burnstock et al., (Br. J. Pharmacol., 90, 383-391 (1987a)), and Rubino et al., (Eur. J. Pharmacol., 212, 237-240 (1992)). Contractile responses mediated via P2X receptors were examined in the guinea pig urinary bladder and vas deferens, and rabbit saphenous artery, also using standard methods (see Hoyle et al., supra., 1992; Hoyle et al., Br. J. Pharmacol., 99, 617-621 (1990); and Burnstock et al., Br. J. Pharmacol., 90, 111-120 (1987b)).

In assay [7] the test system is P2Y receptor (mesenteric artery). The experiment in a line: Relaxation of rabbit mesenteric artery.
Setting [8] is: listed as 8-(6-Aminohexylamino)ATP.
Where [9] appears, read: listed as 8-(6-amino-hexylamino)ATP.
[10] abbreviates: listed as adenosine-N1-oxide triphosphate.

T1 sequence (P49652 whole entry): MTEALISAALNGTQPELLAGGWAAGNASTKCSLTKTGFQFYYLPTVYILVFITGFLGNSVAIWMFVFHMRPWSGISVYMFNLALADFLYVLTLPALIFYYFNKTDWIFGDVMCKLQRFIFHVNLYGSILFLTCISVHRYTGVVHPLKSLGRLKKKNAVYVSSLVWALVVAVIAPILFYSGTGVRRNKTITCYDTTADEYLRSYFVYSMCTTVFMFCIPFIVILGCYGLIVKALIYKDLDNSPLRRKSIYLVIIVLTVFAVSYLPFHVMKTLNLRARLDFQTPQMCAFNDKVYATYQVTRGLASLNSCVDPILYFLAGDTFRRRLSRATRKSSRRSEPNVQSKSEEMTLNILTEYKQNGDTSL
T2 sequence (P59902 whole entry): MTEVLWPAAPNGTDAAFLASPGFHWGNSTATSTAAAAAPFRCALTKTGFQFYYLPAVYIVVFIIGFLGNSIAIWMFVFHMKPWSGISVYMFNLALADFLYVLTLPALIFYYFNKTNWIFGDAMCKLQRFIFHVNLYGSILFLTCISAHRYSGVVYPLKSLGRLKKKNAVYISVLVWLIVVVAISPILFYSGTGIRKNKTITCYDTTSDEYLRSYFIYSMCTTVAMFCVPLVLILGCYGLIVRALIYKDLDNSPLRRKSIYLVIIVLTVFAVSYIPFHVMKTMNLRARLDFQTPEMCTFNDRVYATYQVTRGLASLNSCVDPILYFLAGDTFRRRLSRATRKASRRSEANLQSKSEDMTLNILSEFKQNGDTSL

With `CC1(C)O[C@@H]2[C@H](O1)[C@@H](COP(=O)(O)O)O[C@H]2n1cnc2c(N)ncnc21` [2',3'-Isopropylidene-AMP, 2',3'-Isopropylidene AMP], the “activity/potency/selectivity in words, aorta” value (“activity/potency/selectivity” below) in assay [1] (listed as 2',3'-isopropylidene-AMP) is “a potent agonist at the rabbit endothelial P2Y receptor”; in [1] (listed as Isopropylidene-AMP), “specific for the aortic endothelial P2Y receptor”. The “overall activity in words, P2X systems” value in the assay with P2X receptors is “inactive in the P2X receptor systems”. The EC50 in [2] was above 100000 nM. Also, the “overall activity in words, all preparations” value with P2X and P2Y receptors was “Neither was particularly active at either P2X or P2Y receptors”.

As for `Nc1ncnc2c1ncn2[C@H]1C[C@H](O)[C@@H](COP(=O)(O)OP(=O)(O)OP(=O)(O)O)O1` [2'-Deoxy-ATP, 2'-deoxy-ATP, reference compound], the “activity/potency in words, taenia coli” value in [3] (guinea pig taenia coli) is on record as “roughly equipotent with ATP in the taenia coli”; in [3] (guinea pig taenia coli, listed as 2'-deoxy-ATP), “selectivity”. Further, the EC50 in assay [3] (guinea pig taenia coli, log molar units, read-out: relaxation pD2, taenia coli (converted)) is 2.51 µM; in assay [2], 19200 nM. Further, the “overall activity in words, P2X systems” value in the assay with P2X receptors was “inactive in the P2X receptor systems”. Further, in assay [2] (relative to ATP), the “fold less potent than ATP, turkey erythrocyte” value is reported as 7 -fold. In assay [2], the “activity/potency in words, turkey erythrocyte” value is “seven times less potent than ATP in the turkey erythrocyte”. In the assay with P2X and P2Y receptors, the “overall activity in words, all preparations” value is “inactive in the five other preparations”.

Take `Nc1ncnc2c1ncn2[C@@H]1O[C@H](COP(=O)(O)OP(=O)(O)OP(=O)(O)O)C[C@H]1O` [3'-Deoxy-ATP, 3'-deoxy-ATP, reference compound]: in assay [4], the “activity/potency in words, bladder” value was “as active as ATP, or nearly so; also recorded: less potent or equal to potency of ATP”. Besides, the “activity/potency in words, vas deferens” value in assay [5] was “as active as ATP, or nearly so; also recorded: equivalent to the effect of ATP”. Moreover, the “activity/potency in words, saphenous artery” value in assay [6] was “no effect”. Further, the EC50 in assay [2] turned out to be 75500 nM. Besides, in the assay with P2Y receptors, the “overall activity in words, P2Y systems” value is “less potent than 2'-deoxy-ATP at P2Y receptors”. The “overall activity in words, all preparations” value in the assay with P2X and P2Y receptors is “greatly reduce or abolish activity within most P2X and P2Y preparations”.

On to `NCCCCCCNc1nc2c(N)ncnc2n1[C@@H]1O[C@H](COP(=O)(O)OP(=O)(O)OP(=O)(O)O)[C@@H](O)[C@H]1O` [8-(6-Aminohexylamino)-ATP, 8-(6-aminohexylamino)-ATP, reference compound], for which the “activity/potency/selectivity” value in assay [1] (setting [8]) is “selective for the endothelial receptors of the rabbit aorta versus the mesenteric artery and taenia coli”; in assay [1] (setting [9]), “much more potent than ATP”; in assay [1] (listed as 8-(6-aminohexylamino)ATP), “high selectivity”. For the same compound, the “relaxation pD2, aorta” value in assay [1] is given as 7.3. Besides, the “overall activity in words, P2X systems” value with P2X receptors was “inactive in the P2X receptor systems”. In [7], the “activity/potency in words, mesenteric artery” value was “no activity at the mesenteric artery P2Y receptor”. For the same compound, the “activity/potency in words, turkey erythrocyte” value in assay [2] (setting [8]) was “somewhat active in turkey erythrocytes”; in assay [2] (setting [9]), “less potent than ATP at the turkey erythrocyte P2Y receptor”. Besides, the EC50 in assay [2] was determined as 8200 ± 1200 nM. In the assay with P2Y receptors, the “overall activity in words, P2Y systems” value is reported as “specific for P2Y receptors”.

Turning to `Nc1c2ncn([C@@H]3O[C@H](COP(=O)(O)OP(=O)(O)OP(=O)(O)O)[C@@H](O)[C@H]3O)c2nc[n+]1[O-]` [Adenosine N1-oxide 5'-triphosphate, adenosine N1-oxide 5'-triphosphate, reference compound], the EC50 in [3] is 12.6 µM; in assay [2], 16900 nM. Further, the “activity/potency/selectivity” value was “selective for the endothelial receptors of the rabbit aorta versus the mesenteric artery and taenia coli” in assay [1]; “much more potent than ATP” in [1] (setting [10]). Besides, the “relaxation pD2, aorta” value in [1] is 6.7. The “overall activity in words, P2X systems” value in the assay on P2X receptors is “inactive in the P2X receptor systems”. For the same compound, the “activity/potency in words, mesenteric artery” value in assay [7] is given as “no activity at the mesenteric artery P2Y receptor”. In addition, the “activity/potency in words, turkey erythrocyte” value in [2] is reported as “somewhat active in turkey erythrocytes”; in assay [2] (setting [10]), “less potent than ATP at the turkey erythrocyte P2Y receptor”. The “overall activity in words, P2Y systems” value in the assay on P2Y receptors was “specific for P2Y receptors”.
